The term IC50 denotes the concentration at which inhibition is half-maximal.

Consider nine compounds from patent US20140107109A1, “AMINO-DIHYDROTHIAZINE AND AMINO-DIOXIDO DIHYDROTHIAZINE COMPOUNDS AS BETA-SECRETASE ANTAGONISTS AND METHODS OF USE” (Amgen Inc., priority 2012, published 2014).

Experiment [1] addresses Beta Secretase enzyme (BACE1) (Homo sapiens, UniProt P56817). Briefly: In vitro enzymatic BACE FRET assay. The settings on record: read-out: BACE1 FRET assay IC50. The format is biochemical. In outline: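 BACE1 cleavage of a 50 nM fluorophore/quencher peptide FRET substrate ran for one hour in 0.05 M acetate pH 4.2, 10% DMSO, 100 uM genapol. Tris buffer raised pH to neutrality to stop the reaction before fluorescence was read (excitation 488 nm, […]).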

Experiment [2] deals with Aβ40 in conditioned medium of cells stably expressing Amyloid Precursor Protein (APP). The experiment is described as follows: In vitro BACE cell-based assay (HEK cell assay), Aβ40 sandwich ELISA. The settings on record: Homo sapiens, HEK293. In short, it runs like this:
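APP-stably expressing cells (40K/well, grown 24 h in DMEM/10% FBS) were treated 24 h with compounds in 10-point dose response starting at 100 μM or 10 μM, 0.1% DMSO final. Secreted Aβ40 was measured by sandwich ELISA (pAb40 capture, biotinylated 6E10 detection, europium time-resolved fluorescence); IC50 from percent inhibition.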
(In general: An ELISA detects its analyte on a solid surface through an enzyme-linked reagent.)

For the next experiment, the target named is T1, Cathepsin D (Cat D) (Homo sapiens, UniProt P07339).
T1 construct: Recombinant Cat D was expressed in CHO cells; made in house; host or cells: CHO cells
Briefly: In vitro enzymatic Cathepsin D (Cat D) FRET assay. It counts as biochemical. In outline:
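Recombinant Cat D expressed in CHO cells, used at 9 nM and pre-incubated one hour with serially diluted inhibitor in DMSO. Peptide substrate carries a fluorophore and quencher flanking the cleavage site; reaction stopped with Tris buffer raising pH to neutrality, then fluorescence read.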

Where two headings read alike, the source gives them in different places. Some results are limits rather than exact numbers.

Sequence of Beta Secretase enzyme (BACE1) (P56817 46-501): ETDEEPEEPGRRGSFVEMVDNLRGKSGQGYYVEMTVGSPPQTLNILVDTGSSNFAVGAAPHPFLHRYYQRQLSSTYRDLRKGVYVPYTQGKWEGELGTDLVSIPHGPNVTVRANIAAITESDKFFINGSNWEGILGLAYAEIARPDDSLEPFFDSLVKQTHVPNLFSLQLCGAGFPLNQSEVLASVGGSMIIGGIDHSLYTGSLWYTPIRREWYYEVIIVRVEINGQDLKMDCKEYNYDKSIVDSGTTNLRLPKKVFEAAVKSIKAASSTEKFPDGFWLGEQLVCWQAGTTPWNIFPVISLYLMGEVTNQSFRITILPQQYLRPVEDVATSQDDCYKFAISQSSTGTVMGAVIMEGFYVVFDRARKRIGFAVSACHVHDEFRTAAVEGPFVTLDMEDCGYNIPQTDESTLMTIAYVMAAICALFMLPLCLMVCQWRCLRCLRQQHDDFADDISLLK
T1 sequence (P07339 65-412, species assumed): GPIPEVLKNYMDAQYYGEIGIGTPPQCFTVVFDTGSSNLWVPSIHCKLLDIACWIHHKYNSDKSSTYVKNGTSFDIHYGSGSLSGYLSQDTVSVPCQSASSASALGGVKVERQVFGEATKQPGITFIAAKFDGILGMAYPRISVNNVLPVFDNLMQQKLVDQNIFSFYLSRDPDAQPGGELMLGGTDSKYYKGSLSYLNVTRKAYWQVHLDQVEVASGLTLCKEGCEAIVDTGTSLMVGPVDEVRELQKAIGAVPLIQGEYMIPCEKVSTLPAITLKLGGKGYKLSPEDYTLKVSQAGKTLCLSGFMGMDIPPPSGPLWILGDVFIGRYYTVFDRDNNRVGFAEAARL

With `CC1(C)C(N)=N[C@](C)(c2cc(C(=O)Nc3ccc(C#N)cc3O)ccc2F)CS1(=O)=O` [Example 173, (R)-3-(5-amino-3,6,6-trimethyl-1,1-dioxido-3,6-dihydro-2H-1,4-thiazin-3-yl)-N-(4-cyano-2-hydroxyphenyl)-4-fluorobenzamide], the IC50 in experiment [1] (average IC50, enzyme assay) is 2290 nM; in experiment [2] (average IC50, cell assay) it was > 15600 nM; at Cathepsin D (Cat D) (read-out: CatD IC50), 104000 nM.
Consider `C[C@]1(F)C(N)=N[C@](C)(c2cc(Nc3nccc4cc(Cl)cnc34)ccc2F)CS1(=O)=O` [Example 174, (3R,6R)-5-Amino-3-(5-((3-chloro-1,7-naphthyridin-8-yl)amino)-2-fluorophenyl)-6-fluoro-3,6-dimethyl-3,6-dihydro-2H-1,4-thiazine 1,1-dioxide], for which the IC50 in experiment [1] (average IC50, enzyme assay) amounted to 0.33 nM; in experiment [2] (average IC50, cell assay) it was 119 nM; at Cathepsin D (Cat D) (read-out: CatD IC50), 101000 nM.
With `C[C@]1(F)C(N)=N[C@](C)(c2cc(Nc3ncnc4cc(Cl)cnc34)ccc2F)CS1(=O)=O` [Example 175, (3R,6R)-5-Amino-3-((5-(7-chloropyrido[3,2-d]pyrimidin-4-yl)amino)-2-fluorophenyl)-6-fluoro-3,6-dimethyl-3,6-dihydro-2H-1,4-thiazine 1,1-dioxide], the IC50 in experiment [1] (average IC50, enzyme assay) turned out to be 3.88 nM; in experiment [2] (average IC50, cell assay), 103 nM; at Cathepsin D (Cat D) (read-out: CatD IC50), 75800 nM.
On to `COc1cnc(C(=O)Nc2ccc(F)c([C@]3(C)CS(=O)(=O)[C@](C)(F)C(N)=N3)c2)cn1` [Example 176], for which the IC50 in experiment [1] (average IC50) came out at 2.8 nM; in experiment [2] (average IC50, HEK cells), 254 nM; at Cathepsin D (Cat D) (read-out: CatD IC50) it was 650000 nM.
On to `COc1cnc2c(Nc3ccc(F)c([C@]4(C)CS(=O)(=O)[C@@](C)(F)C(N)=N4)c3)ncnc2c1` [Example 177, (3R,6R)-5-Amino-6-fluoro-3-(2-fluoro-5-((7-methoxypyrido[3,2-d]pyrimidin-4-yl)amino)phenyl)-3,6-dimethyl-3,6-dihydro-2H-1,4-thiazine 1,1-dioxide], for which the 50% inhibitory concentration (IC50) in experiment [1] (average IC50, enzyme assay) came to 2.68 nM; in experiment [2] (average IC50, cell assay) it was 78.2 nM; on Cathepsin D (Cat D) (read-out: CatD IC50) it was 175000 nM.
On to `C[C@]1(F)C(N)=N[C@](C)(c2cc(Nc3ncc(F)c4cc(Cl)cnc34)ccc2F)CS1(=O)=O` [Example 178, (3R,6R)-5-Amino-3-(5-((3-chloro-5-fluoro-1,7-naphthyridin-8-yl)amino)-2-fluorophenyl)-6-fluoro-3,6-dimethyl-3,6-dihydro-2H-1,4-thiazine 1,1-dioxide], for which the IC50 in experiment [1] (average IC50) came out at 0.38 nM; in experiment [2] (average IC50, HEK cells), 379 nM; on Cathepsin D (Cat D) (read-out: CatD IC50), 32100 nM.
The like results for `C[C@]1(F)C(N)=N[C@](C)(c2cc(Nc3ncc(F)c4cc(C#N)cnc34)ccc2F)CS1(=O)=O` [Example 179, 8-((3-((3R,6R)-5-Amino-6-fluoro-3,6-dimethyl-1,1-dioxido-3,6-dihydro-2H-1,4-thiazin-3-yl)-4-fluorophenyl)amino)-5-fluoro-1,7-naphthyridine-3-carbonitrile] were, in that order, 0.8 nM, 157 nM and > 44400 nM.
As to `C[C@]1(F)C(N)=N[C@](C)(c2cc(Nc3ncnc4cc(C#N)cnc34)ccc2F)CS1(=O)=O` [Example 180, 4-((3-((3R,6R)-5-Amino-6-fluoro-3,6-dimethyl-1,1-dioxido-3,6-dihydro-2H-1,4-thiazin-3-yl)-4-fluorophenyl)amino)pyrido[3,2-d]pyrimidine-7-carbonitrile], the IC50 was 1.1 nM in experiment [1] (average IC50, enzyme assay); 89.4 nM in experiment [2] (average IC50, cell assay); 65500 nM at Cathepsin D (Cat D) (read-out: CatD IC50).
With `Cc1nc(F)c([C@]2(C)CS(=O)(=O)C(C)(C)C(N)=N2)cc1Br` [Example 184, (R)-5-Amino-3-(5-bromo-2-fluoro-6-methylpyridin-3-yl)-3,6,6-trimethyl-3,6-dihydro-2H-1,4-thiazine 1,1-dioxide], the IC50 in experiment [1] (average IC50, enzyme assay) stood at 8110 nM; in experiment [2] (average IC50, cell assay), 3990 nM; on Cathepsin D (Cat D), 127000 nM.
